In the supplement of paper PMC10307832:

Key:
Test in all cases: relative viability (nuclei count vs DMSO), 5 days (fraction); higher = more cells survive
[1] = compound: CCC1=CN=CN=C1N2CCN(CC2)CC3=NC4=C(N3)C=C(C=C4)C(F)(F)F + Nc1ncn([C@H]2C[C@H](O)[C@@H](CO)O2)c(=O)n1 [Decitabine] (partner 2 µM)
Procedure, shortened: (§1)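 Relative viability was taken as the ratio of nuclei in treated wells to nuclei in vehicle wells. Lung cancer cell lines in 1536-well plates received compounds by pin tool one day after seeding, either one drug alone or a fixed anchor-drug dose plus five library-drug doses (not always all listed) in √10 steps. Nuclei were counted on 4× images after 5 days of treatment, and values are medians of duplicate plates.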

[2] = compound: CCn1c(-c2nonc2N)nc2cnc(Oc3cccc(NC(=O)c4ccc(OCCN5CCOCC5)cc4)c3)cc21 + COc1cc2c(Oc3ccc(NC(=O)C4(C(=O)Nc5ccc(F)cc5)CC4)cc3F)ccnc2cc1OCCCN1CCOCC1 [Foretinib] (partner 0.25 µM)
Procedure, shortened: as §1

[3] = compound: CCn1c(-c2nonc2N)nc2cnc(Oc3cccc(NC(=O)c4ccc(OCCN5CCOCC5)cc4)c3)cc21 + CC(C)C[C@H](NC(=O)[C@H](Cc1ccccc1)NC(=O)c1cnccn1)B(O)O [Bortezomib] (partner 0.002 µM)
Procedure, shortened: as §1

Cell Line | relative viability ([1]; first compound 0.04 µM) | relative viability ([1]; first compound 0.1265 µM) | relative viability ([1]; first compound 0.4 µM) | relative viability ([1]; first compound 4 µM) | relative viability ([2]; first compound 0.04 µM) | relative viability ([2]; first compound 0.1265 µM) | relative viability ([2]; first compound 0.4 µM) | relative viability ([2]; first compound 1.265 µM) | relative viability ([2]; first compound 4 µM) | relative viability ([1]; first compound 1.265 µM) | relative viability ([3]; first compound 0.04 µM) | relative viability ([3]; first compound 0.1265 µM) | relative viability ([3]; first compound 0.4 µM) | relative viability ([3]; first compound 1.265 µM) | relative viability ([3]; first compound 4 µM)
SW 900 | 0.385 | 0.424 | 0.457 | 0.397 | 1.04 | 0.977 | 0.91 | 0.995 | 0.886 |  |  |  |  |  | 
NCI-H1944 | 0.476 | 0.415 | 0.426 | 0.435 | 0.772 | 0.869 | 0.978 | 0.861 | 0.658 | 0.391 |  |  |  |  | 
NCI-H838 | 0.418 | 0.408 | 0.475 | 0.444 | 0.771 | 0.7 | 0.562 | 0.378 | 0.371 | 0.433 | 0.729 | 0.397 | 0.319 | 0.385 | 0.31
NCI-H1650 | 0.372 | 0.419 | 0.377 | 0.536 | 1.19 | 1.32 | 1.49 | 1.23 | 0.969 | 0.417 | 0.258 | 0.21 | 0.196 | 0.209 | 0.211
HCC-827 | 0.504 | 0.286 | 0.34 | 0.357 | 1.11 | 1.05 | 0.996 | 0.877 | 0.751 | 0.307 | 0.99 | 1.04 | 0.906 | 0.666 | 0.885
HCC-366 | 0.356 | 0.288 | 0.317 | 0.353 | 0.946 | 1 | 0.907 | 0.937 | 0.968 | 0.307 | 1.32 | 1.11 | 0.151 | 0.0688 | 0.0348
HARA | 0.424 | 0.505 | 0.533 | 0.512 | 1.13 | 1.09 | 0.906 | 0.939 | 0.883 | 0.508 | 1.19 | 0.943 | 0.36 | 0.176 | 0.145
NCI-H441 | 0.239 | 0.212 | 0.21 | 0.315 | 1.12 | 1.04 |  | 0.859 | 0.79 | 0.264 | 0.484 | 0.895 | 0.458 | 0.42 | 0.374
LXF-289 | 0.348 | 0.325 | 0.426 | 0.419 | 1.06 | 1.02 | 0.982 | 0.936 | 0.882 | 0.343 | 1.03 | 1.04 | 0.932 | 0.728 | 0.646
RERF-LC-KJ | 0.638 | 0.627 | 0.745 | 0.611 | 1.02 | 0.829 | 0.74 | 0.532 | 0.532 | 0.577 | 1.32 | 1.31 | 1.01 | 0.731 | 0.754
CAL-12T |  |  |  |  | 1.42 | 1.3 | 1.28 | 0.793 | 0.51 |  | 1.23 | 1.08 | 0.834 |  | 0.678
COR-L 105 | 0.665 | 0.652 | 0.698 | 0.669 | 1.25 | 1 | 0.874 | 0.575 | 0.308 | 0.541 | 0.734 | 0.625 | 0.519 | 0.319 | 0.319
NCI-H2405 | 0.748 | 0.715 | 0.711 | 0.795 | 1.23 | 0.999 | 0.485 | 0.342 | 0.384 |  | 1.05 | 0.744 | 0.348 | 0.277 | 0.973
NCI-H2228 |  |  |  |  | 1.28 | 0.946 | 1.03 | 0.744 | 0.731 |  | 1.12 | 0.897 | 0.921 | 0.591 | 0.839
PC-14 | 0.209 | 0.159 | 0.22 | 0.228 | 0.927 | 0.84 | 0.761 | 0.718 | 0.72 | 0.205 | 1.04 | 0.857 | 0.905 | 0.776 | 0.729
NCI-H2087 | 0.278 | 0.234 | 0.331 | 0.209 | 1.1 | 0.911 | 1.01 | 0.876 | 0.695 | 0.271 |  | 0.591 | 0.778 | 0.473 | 0.459
A549 | 0.277 | 0.121 | 0.237 | 0.247 | 1.19 | 0.985 | 1.06 | 0.246 | 0.12 | 0.265 |  |  |  |  | 
NCI-H2342 | 0.689 | 0.728 | 0.707 | 0.513 | 1.16 | 1.18 | 1.01 | 0.771 | 0.917 | 0.575 |  |  |  |  | 
NCI-H1623 |  |  |  |  | 1.08 | 0.975 | 0.779 | 0.727 | 0.897 |  |  |  |  |  | 
SW 1573 | 0.471 | 0.425 | 0.57 | 0.478 | 1.1 | 0.926 | 0.527 | 0.539 | 0.354 | 0.378 | 0.984 | 1.04 | 0.871 | 0.575 | 0.41
NCI-H2085 | 0.487 | 0.526 | 0.557 | 0.573 | 1.2 | 1.15 | 0.93 | 0.858 | 0.806 | 0.476 | 1.11 | 1.01 | 0.86 | 0.872 | 0.861
NCI-H520 | 0.598 | 0.414 | 0.426 | 0.436 | 0.962 | 0.994 | 0.755 | 0.603 | 0.429 | 0.424 | 0.749 | 0.614 | 0.537 | 0.349 | 0.239
Calu-6 |  |  |  |  | 1.03 | 0.832 | 0.84 | 0.568 | 0.507 |  | 1.03 | 0.922 | 0.771 | 0.5 | 0.469
SK-LU-1 | 0.512 | 0.6 | 0.623 | 0.614 | 0.837 | 0.621 | 0.587 | 0.333 | 0.318 | 0.605 | 1.5 | 0.921 | 0.608 |  | 0.504
LCLC-103H | 0.708 | 0.698 | 0.712 | 0.728 | 0.777 | 0.91 | 0.798 | 0.662 | 0.624 | 0.748 | 1.08 | 1.11 | 0.932 | 0.651 | 0.716
